Columns and labels:
[1] = biological target: T1, 5-hydroxytryptamine receptor 2C (Rattus norvegicus, UniProt P08909)
T1 sequence (P08909 whole entry): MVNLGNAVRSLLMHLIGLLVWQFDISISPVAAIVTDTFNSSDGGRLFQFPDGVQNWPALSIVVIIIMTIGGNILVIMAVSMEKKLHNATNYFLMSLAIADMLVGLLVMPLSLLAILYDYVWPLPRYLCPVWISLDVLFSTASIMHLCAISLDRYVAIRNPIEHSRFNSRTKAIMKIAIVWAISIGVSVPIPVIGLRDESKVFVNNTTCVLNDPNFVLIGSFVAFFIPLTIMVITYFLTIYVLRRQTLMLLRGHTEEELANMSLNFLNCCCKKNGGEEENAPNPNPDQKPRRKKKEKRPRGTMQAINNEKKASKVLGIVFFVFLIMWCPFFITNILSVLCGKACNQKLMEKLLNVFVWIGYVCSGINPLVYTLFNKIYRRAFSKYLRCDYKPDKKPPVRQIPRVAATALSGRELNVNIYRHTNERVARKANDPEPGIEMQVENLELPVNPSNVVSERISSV

[2] = biological target: Serotonin 2 (5-HT2) receptor (Rattus norvegicus, UniProt P30994+P08909+P14842)
[3] = biological target: T2, 5-hydroxytryptamine receptor 1A (Rattus norvegicus, UniProt P19327)
T2 sequence (P19327 whole entry): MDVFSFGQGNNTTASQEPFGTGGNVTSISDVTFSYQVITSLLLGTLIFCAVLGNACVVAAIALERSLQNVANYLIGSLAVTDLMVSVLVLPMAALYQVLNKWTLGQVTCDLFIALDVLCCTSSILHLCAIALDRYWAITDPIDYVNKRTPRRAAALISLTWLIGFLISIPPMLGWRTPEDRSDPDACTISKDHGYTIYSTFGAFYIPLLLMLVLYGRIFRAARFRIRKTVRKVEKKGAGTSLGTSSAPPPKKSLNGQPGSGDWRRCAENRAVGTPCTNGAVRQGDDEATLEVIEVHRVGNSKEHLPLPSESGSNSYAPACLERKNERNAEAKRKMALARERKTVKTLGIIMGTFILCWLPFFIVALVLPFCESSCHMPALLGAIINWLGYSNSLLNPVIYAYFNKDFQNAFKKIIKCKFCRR

[4] = biological target: 5-hydroxytryptamine receptor 1B (Rattus norvegicus, UniProt P28564)
Chain of 5-hydroxytryptamine receptor 1B (P28564 whole entry): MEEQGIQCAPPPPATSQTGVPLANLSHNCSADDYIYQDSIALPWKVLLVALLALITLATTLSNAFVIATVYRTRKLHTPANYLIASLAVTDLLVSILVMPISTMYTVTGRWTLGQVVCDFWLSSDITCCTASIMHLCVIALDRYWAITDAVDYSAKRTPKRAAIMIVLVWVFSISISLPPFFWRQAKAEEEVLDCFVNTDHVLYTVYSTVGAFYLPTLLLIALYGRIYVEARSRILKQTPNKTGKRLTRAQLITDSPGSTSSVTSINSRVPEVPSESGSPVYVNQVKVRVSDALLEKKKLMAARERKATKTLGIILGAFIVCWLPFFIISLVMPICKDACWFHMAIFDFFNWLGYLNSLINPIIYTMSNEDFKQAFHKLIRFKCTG

[5] = biological target: 5-hydroxytryptamine receptor 1E (Homo sapiens, UniProt P28566)
Chain of 5-hydroxytryptamine receptor 1E (P28566 whole entry): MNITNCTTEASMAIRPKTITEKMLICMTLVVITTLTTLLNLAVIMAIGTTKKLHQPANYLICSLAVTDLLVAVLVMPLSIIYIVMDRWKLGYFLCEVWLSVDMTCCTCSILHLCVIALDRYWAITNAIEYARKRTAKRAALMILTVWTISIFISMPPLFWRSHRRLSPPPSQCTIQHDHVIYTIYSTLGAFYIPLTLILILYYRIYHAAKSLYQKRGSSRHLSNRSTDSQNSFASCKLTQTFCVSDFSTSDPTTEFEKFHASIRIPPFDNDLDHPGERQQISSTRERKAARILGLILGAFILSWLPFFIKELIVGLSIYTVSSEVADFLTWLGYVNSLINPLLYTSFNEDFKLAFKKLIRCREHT

Compound	Ki [1] [nM]	Ki [2] [µM]	Ki [3] [nM]	Ki [4] [nM]	Ki [5] [µM]
Cc1[nH]c2ccc(O)cc2c1CCN	650	> 10	1200	520	> 10
COc1ccc2[nH]c(C)c(CCN)c2c1	690	> 10	1300	800	> 10

Reference: ChEMBL document CHEMBL1124834, “5-HT1 and 5-HT2 binding profiles of the serotonergic agents alpha-methylserotonin and 2-methylserotonin” (J Med Chem, 1990)
